Measured values taken from PMC10136296, “Biological Screening and Crystallographic Studies of Hydroxy γ-Lactone Derivatives to Investigate PPARγ Phosphorylation Inhibition” (Biomolecules, 2023).

What was measured:
[1] = system: PPARγ Ser245 phosphorylation by CDK5/p35; test: In vitro kinase assay: CDK5-mediated phosphorylation of PPARγ-LBD (Pro-Q Diamond stain); assay type: biochemical; conditions: 10 µM ligand, 30 min at 30 °C
Description: The assay was performed on PPARγ-LBD, in the apo-form and in the complex with ligands 1–3. For the kinase assay, stock solutions of ligands were prepared by diluting with 100% DMSO to a concentration of 500 μM. The stock solutions were further diluted with 50 mM Tris-HCl, pH 7.5, up to the final concentration of 10 μM and pre-equilibrated overnight at 4 °C with the protein.
The kinase assay was carried out for 30 min at 30 °C in 50 μL of the assay buffer containing 50 mM Tris-HCl, pH 7.5, 800 ng of PPARγ-LBD, 10 μM ligand, 1% DMSO, 2.5 mM MgCl2, 50 μM DTT, 500 μM ATP, 40 ng of CDK5/p35 (Sigma-Aldrich code no. SRP5011; Merck KGaA). The experiment was performed in triplicate.
Pro-Q™ Diamond phosphoprotein gel stain (ThermoFisher, Waltham, MA, USA) provides a convenient method for selectively staining phosphoproteins in acrylamide gels, without the need for blotting or the use of phosphoprotein-specific antibodies. After performing electrophoresis, the gel was stained with Pro-Q™ Diamond and analyzed using a Chemidoc Imaging System (Bio-Rad). A further step of gel staining with SYPRO™ Ruby total-protein gel stain (ThermoFisher) was performed. Determining the ratio of the signal intensities of Pro-Q™ Diamond dye to SYPRO™ Ruby dye for each band provides a measure of the phosphorylation level normalized to the total amount of protein. More detailed information on the protocol used in this experiment can be obtained on the ThermoFisher website.
Finally, to assess the ability of 1–3 to inhibit the CDK5-mediated phosphorylation of PPARγ in vitro, a kinase assay was set up and optimized to measure the inhibition rate, as described in the experimental section. The phosphoproteins were detected and quantified by using the Pro-Q™ Diamond phosphoprotein gel stain method.

CDK5/p35 = target: T1, CDK5/p35 (Homo sapiens, UniProt Q00535); test: CDK5 inhibition test with histone H2A/H2B as substrate; assay type: biochemical; conditions: 5 µM ligand, H2a/H2b as phosphorylation target
T1 construct: purchased Sigma-Aldrich (Merck KGaA) SRP5011
T1 sequence (Q00535 whole entry): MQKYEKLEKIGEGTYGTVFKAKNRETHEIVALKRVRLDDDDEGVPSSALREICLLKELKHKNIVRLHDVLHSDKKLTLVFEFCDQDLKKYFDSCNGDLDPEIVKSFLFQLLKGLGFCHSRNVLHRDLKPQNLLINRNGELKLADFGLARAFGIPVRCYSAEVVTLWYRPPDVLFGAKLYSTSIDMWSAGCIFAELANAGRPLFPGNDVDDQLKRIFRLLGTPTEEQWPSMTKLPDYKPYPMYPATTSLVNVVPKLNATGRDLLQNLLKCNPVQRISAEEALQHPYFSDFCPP
T1 sequence (Q15078 whole entry partner): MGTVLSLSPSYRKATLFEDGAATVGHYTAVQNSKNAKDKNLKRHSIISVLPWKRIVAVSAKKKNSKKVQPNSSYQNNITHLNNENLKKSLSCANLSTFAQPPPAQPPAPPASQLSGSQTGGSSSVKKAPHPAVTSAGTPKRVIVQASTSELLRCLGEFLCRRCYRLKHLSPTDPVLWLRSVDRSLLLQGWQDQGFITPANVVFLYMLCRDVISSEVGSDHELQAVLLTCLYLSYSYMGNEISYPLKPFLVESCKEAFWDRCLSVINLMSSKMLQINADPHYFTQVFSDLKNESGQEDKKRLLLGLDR
Description: The degree of CDK5 inhibition in the presence of compounds 1, 2, and 3 was evaluated with the same protocol described above for the in vitro kinase assay. In detail, the test was carried out for 30 min at 30 °C in 50 μL of the assay buffer containing 50 mM Tris-HCl, pH 7.5, 800 ng H2A/H2B, 5 μM ligand (for the calculation of the ligand concentration, the excess amount of compounds 1, 2, and 3 possibly not bound to PPARγ was overestimated), 1% DMSO, 2.5 mM MgCl2, 50 μM DTT, 500 μM ATP, 40 ng of CDK5/p35 (Sigma-Aldrich code no. SRP5011; Merck KGaA). The Pro-Q™ Diamond Phosphoprotein Gel Stain method and a Chemidoc Imaging System (Bio-Rad) were used for measuring the phosphorylation level. The experiment was performed in triplicate and the statistical significance was estimated as above.
Furthermore, these molecules were also screened as potential inhibitors of CDK5 itself, considering their structural similarity to BLI (Figure 2), which was reported in the literature as both a PPARγ partial agonist and a CDK5 inhibitor [10]. A kinase activity test was performed in the presence of compounds 1, 2, and 3, using histone H2a/H2b as a phosphorylation target.

PPARγ-LBD = target: T2, PPARγ-LBD (Homo sapiens, UniProt P37231); test: SPR full kinetic analysis on immobilized PPARγ-LBD; assay type: binding; conditions: for Kd: SPR full kinetic analysis, KD = Koff/Kon; for koff / kon: SPR, 25 °C, 5 μM to 312 nM, 1:1 model
T2 construct: PPARγ-LBD (NP_001120802; aa 207−474) was expressed as an N-terminal His-tagged protein; His-tag (N, cleaved yes); made in house; host or cells: E. coli BL21(DE3), pET-28a(+)
T2 sequence (P37231 207-474 isoform P37231-2 limits assumed): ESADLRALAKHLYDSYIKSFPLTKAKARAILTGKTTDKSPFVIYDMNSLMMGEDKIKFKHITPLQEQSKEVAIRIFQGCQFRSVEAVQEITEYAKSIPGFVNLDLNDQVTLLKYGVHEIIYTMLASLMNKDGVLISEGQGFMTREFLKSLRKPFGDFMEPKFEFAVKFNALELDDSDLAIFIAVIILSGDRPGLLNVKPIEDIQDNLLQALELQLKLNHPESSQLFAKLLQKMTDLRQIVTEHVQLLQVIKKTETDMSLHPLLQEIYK
Description: SPR experiments were performed at 25 °C using a Pioneer AE optical biosensor (Sartorius, Varedo, Italy) equipped with a PCH sensor chip (linear polycarboxylate hydrogel layer) and equilibrated with running buffer 10 mM Hepes, pH 7.4, 150 mM NaCl, 0.005% Tween-20, 1% DMSO. The PCH sensor chip was installed and conditioned in accordance with the manufacturer’s instructions. PPARγ-LBD was immobilized on the surface using amine coupling chemistry. Briefly, flow cells were activated for 5 min by injecting 125 μL of 1:1 ratio of 100 mM N-hydroxysuccinimide (NHS)/400 mM N-ethyl-N’-(3-(dimethylamino)propyl)carbodiimide (EDC). The protein solution (150 μg mL^−1 in 10 mM Na Acetate, pH 4.5) was then injected at 10 μL min^−1, followed by a 70 μL injection of 1 M ethanolamine (pH 8.0) to block any remaining activated groups on the surface. Approximately 11,770 and 10,800 RUs of protein were immobilized on Channel 1 and Channel 3 of the sensor chip, respectively, whereas Channel 2 was used as a reference for non-specific binding. […] The analytes were dialyzed in the running buffer (1% final DMSO concentration) and primary screened using OneStep® injection technology, which allows the compounds to diffuse into a moving stream of buffer to generate a concentration gradient (from 0 up to 10 μM) during a single injection at a flow rate of 50 μL min^−1 [40]. For each analyte injection, a long dissociation (600 s) was allowed, and regeneration of the sensing surface was not used. Next, the full kinetic analysis of the selected compounds was performed at different serial concentrations (from 5 μM to 312 nM) for 120 s at a constant flow rate of 50 μL min^−1. For each analyte injection, a dissociation of 180 s was allowed, followed by a short mild regeneration step with 1 M NaCl. All sensorgrams were processed using double referencing. First, responses from the reference surface (Channel 2) were subtracted from the binding responses collected over the reaction surfaces to correct for bulk refractive index changes between the flow buffer and analyte sample. Second, the response from the closest blank injection (zero analyte concentration) was subtracted to compensate for drift and small differences between the activated channel and the reference flow cell Channel 2. As an internal control for the gradient dispersion process, an injection of 3% sucrose dissolved in the assay buffer was performed for all the injections to ensure proper gradient formation and to calibrate for buffer viscosity. To obtain kinetic rate constants and affinity constants, the corrected response data were fitted in QDAT software provided with the instrument (BioLogic Software, Canberra, Australia). A kinetic analysis of the ligand/analyte interaction was obtained by fitting the response data to a reversible 1:1 bimolecular interaction model. The equilibrium dissociation constant (KD) was determined by the ratio Koff/Kon. This experiment was performed in duplicate.
The OneStep® injection technology was used for the screening of our compound collection. This method has been successfully employed in our previous work to test a series of natural products, extracted from medicinal plants. Its efficiency and reliability as a screening technique were confirmed by the rapid identification of promising compounds. This approach is based on the well-established concept of Taylor dispersion injection, which allows the compound to diffuse into a moving stream of buffer, producing a gradient throughout the injections. In this way, a wide range of analyte concentrations can be readily tested. In this assay, all the ligands from the DMSO stock solutions were dialyzed into the running buffer at 10 μM (1% final DMSO concentration) and gradient-injected for 120 s over the sensor chip surface. […]

[2] = target: T3, human PPARγ subtype (hPPARγ), Gal4-PPARγ-LBD (Homo sapiens, UniProt P37231); test: GAL4-PPAR transactivation assay, antagonist mode (competition with rosiglitazone); assay type: cell-based; conditions: HepG2, antagonist mode vs rosiglitazone 1 µM; mean ± SEM; uncertain above 10 µM because of cytotoxicity
T3 construct: expressed in transfected cells; host or cells: HepG2
T3 sequence (P37231 238-503 limits assumed): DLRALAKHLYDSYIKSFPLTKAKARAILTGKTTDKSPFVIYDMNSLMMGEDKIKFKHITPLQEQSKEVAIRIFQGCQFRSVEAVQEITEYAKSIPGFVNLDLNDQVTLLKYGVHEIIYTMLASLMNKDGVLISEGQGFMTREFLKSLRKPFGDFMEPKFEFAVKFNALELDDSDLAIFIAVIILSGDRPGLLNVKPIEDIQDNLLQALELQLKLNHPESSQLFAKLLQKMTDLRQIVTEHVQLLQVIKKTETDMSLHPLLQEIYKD
From the text: (§1) Reference compounds, the cell culture medium, and the reagents were purchased from Sigma-Aldrich (Merck KGaA). The expression vectors bearing the chimeric receptor containing the yeast Gal4-DNA binding domain fused to the human PPARγ-LBD, and the reporter plasmid for this Gal4 chimeric receptor (pGal5TKpGL3), comprising five repeats of the Gal4 response elements upstream of a minimal thymidine kinase promoter adjacent to the coding sequence for luciferase, were described in a previous study. A culture of the human hepatoblastoma cell line HepG2 (Interlab Cell Line Collection, Genoa, Italy) was conducted in minimum essential medium (MEM) containing 10% heat-inactivated fetal bovine serum, 100 U of penicillin G mL^−1, and 100 μg mL^−1 of streptomycin sulfate at 37 °C in a humidified atmosphere of 5% CO2. For transactivation assays, cells were seeded in a 24-well plate at a concentration of 10^5 cells per well and were transfected after 24 h by CAPHOS, a calcium phosphate method, according to the manufacturer’s guidelines. Cell transfection was performed using expression plasmids encoding the fusion protein Gal4-PPARγ-LBD (30 ng), pGal5TKpGL3 (100 ng), and pCMVβgal (250 ng). […] Cell extracts were subsequently analyzed for luciferase activity via luminometry (VICTOR^3 V multilabel plate reader; PerkinElmer, Waltham, MA, USA). ortho-Nitrophenyl-β-D-galactopyranoside was used to measure β-galactosidase activity, following a previously described method. […]
(§2) Furthermore, compounds 1–3 were evaluated in vitro for their agonist activity towards the human PPARγ subtype (hPPARγ) by employing the GAL4-PPAR transactivation assay. […] We evaluated the efficacy of 1–3 on PPARγ at increasing concentrations up to 100 μM. […] The compounds were also analyzed in antagonist mode by conducting a competitive binding assay, in which PPARγ activity was measured at a fixed concentration of the reference agonist rosiglitazone (1 µM) in cells treated with increasing concentrations of 1–3. […]

[3] = target: T3, human PPARγ subtype (hPPARγ), Gal4-PPARγ-LBD; test: GAL4-PPAR transactivation assay, agonist mode; assay type: cell-based; conditions: HepG2, up to 100 µM; rosiglitazone maximum = 100%
From the text: as §1, §2

HepG2 = test: Cytotoxicity seen by microscopy in the transactivation assay; assay type: cell-based, human; conditions: HepG2, at 25 and 100 µM, visually examined, data not shown
Description: Furthermore, compounds 1–3 were evaluated in vitro for their agonist activity towards the human PPARγ subtype (hPPARγ) by employing the GAL4-PPAR transactivation assay. The results were compared to the corresponding data for rosiglitazone, used as a reference in the test. The maximum fold induction obtained with the reference agonist was defined as 100%. We evaluated the efficacy of 1–3 on PPARγ at increasing concentrations up to 100 μM. […] The compounds were also analyzed in antagonist mode by conducting a competitive binding assay, in which PPARγ activity was measured at a fixed concentration of the reference agonist rosiglitazone (1 µM) in cells treated with increasing concentrations of 1–3. The inhibition curves, from which the IC50 values were extrapolated as mean ± SEM of three duplicate experiments, are reported in Figure 4A. […] Consequently, the IC50 values could not be estimated with a certainty above 10 µM, which was the threshold at which the cytotoxicity was null or negligible. From the inhibition curves (Figure 4A), we hypothesized the absence of antagonism: the activity remained unchanged up to 10 µM and then decreased at 25 µM and 100 µM. However, at these concentrations, the signal reduction could not be unequivocally attributed to PPARγ antagonism, due to the cytotoxic effects of the compounds at higher doses.

O=C1OC(c2cccc(O)c2)C(c2ccc(Br)cc2)=C1O (stereo not drawn) [Compound 1, 4-(4-Bromophenyl)-3-hydroxy-5-(3-hydroxyphenyl)furan-2(5H)-one]
inhibition of Ser245 phosphorylation [1]: ~40% | CDK5 inhibition (CDK5/p35): very low inhibition effect | Kd (PPARγ-LBD): 3.75 ± 0.06 µM | koff (PPARγ-LBD): 0.0679 ± 0.0004 s⁻¹ | kon (PPARγ-LBD): 18100 ± 3e+06 M⁻¹ s⁻¹ | melting point: 194 to 195 °C (dec.) | IC50 [2]: 39.9 ± 1.2 µM | agonist activity in the PPARγ transactivation assay [3]: PPARγ non-agonists

O=C1OC(c2cccc(O)c2)C(C(=O)c2ccccc2)=C1O (stereo not drawn) [Compound 2, 4-Benzoyl-3-hydroxy-5-(3-hydroxyphenyl)furan-2(5H)-one]
inhibition of Ser245 phosphorylation [1]: ~40% | CDK5 inhibition (CDK5/p35): more significant inhibitory activity | Kd (PPARγ-LBD): 1.93 ± 0.02 µM | koff (PPARγ-LBD): 0.02241 ± 9e-05 s⁻¹ | kon (PPARγ-LBD): 11700 ± 1e+06 M⁻¹ s⁻¹ | IC50 [2]: 35.1 ± 2.8 µM | agonist activity in the PPARγ transactivation assay [3]: PPARγ non-agonists

O=C1OC(c2ccc(OCc3cccc4ccccc34)cc2)C(c2ccccc2)=C1O (stereo not drawn) [Compound 3, 3-Hydroxy-5-(4-(naphthalen-1-ylmethoxy)phenyl)-4-phenylfuran-2(5H)-one]
inhibition of Ser245 phosphorylation [1]: ~40% | CDK5 inhibition (CDK5/p35): more significant inhibitory activity | Kd (PPARγ-LBD): 1.67 ± 0.02 µM | koff (PPARγ-LBD): 0.0362 ± 0.0001 s⁻¹ | kon (PPARγ-LBD): 21700 ± 2e+06 M⁻¹ s⁻¹ | melting point: 204 °C | cytotoxicity (HepG2): a certain cytotoxicity | IC50 [2]: 16.2 ± 2.5 µM | agonist activity in the PPARγ transactivation assay [3]: PPARγ non-agonists
